In US4224371A, “Sodium 3-acetoxylmethyl-7-[2-(2-amino-4-thiazolyl)-2-methoxyimino-acetamido]-ce ph-3-eme-4-carboxylate” (priority 1977, dated 1980):
Structures can show the parent of a compound that is named as a salt. Where two headings read alike, the source gives them in different places.

How the values were obtained:
[1] = tested on: Staphylococcus aureus I H 41; experiment: In vitro antibacterial activity, liquid medium dilution (MIC); format: cell-based; conditions: 37° C., read-out: minimum inhibiting concentration (MIC)
Description: (§1) The method used was a dilution of a liquid medium where a series of tubes received the same quantity of a sterile nutritive media and increasing doses of the test compounds were placed therein. Then each tube was seeded with a bacterial strain and was incubated for 24 to 48 hours at 37° C. in an oven. The increasing inhibition was determined by transillumination to determine the minimum inhibiting concentration (MIC in μg/ml) and the results are reported in the following Tables.
(§2) Product A is the crystalline D form of the syn isomer of sodium 3-acetoxymethyl-7-[2-(2-amino-4-thiazolyl)-2-methoxyimino-acetamido]-ceph- 3-eme-4-carboxylate.

[2] = tested on: Klebsiella Pneumoniae COc 229; experiment: as above; format: cell-based; conditions: 37° C., read-out: minimum inhibiting concentration (MIC)
Description: as §1, §2

[3] = tested on: Staphylococcus aureus I H 38; experiment: as above; format: cell-based; conditions: 37° C., read-out: minimum inhibiting concentration (MIC)
Description: as §1, §2

[4] = tested on: Proteus Mirabilis 9048; experiment: as above; format: cell-based; conditions: 37° C., read-out: minimum inhibiting concentration (MIC)
Description: as §1, §2

[5] = tested on: Salmonella typhimurium 6478; experiment: as above; format: cell-based; conditions: Salmonella enterica, 37° C., read-out: minimum inhibiting concentration (MIC)
Description: as §1, §2

[6] = tested on: Proteus Vulgaris Du 27; experiment: as above; format: cell-based; conditions: 37° C., read-out: minimum inhibiting concentration (MIC)
Description: as §1, §2

[7] = tested on: Escherichia Coli T 55 4076; experiment: as above; format: cell-based; conditions: 37° C., read-out: minimum inhibiting concentration (MIC)
Description: as §1, §2

[8] = tested on: Staphylococcus aureus I H 005; experiment: as above; format: cell-based; conditions: 37° C., read-out: minimum inhibiting concentration (MIC)
Description: as §1, §2

[9] = tested on: Klebsiella Pneumoniae COc 238; experiment: as above; format: cell-based; conditions: 37° C., read-out: minimum inhibiting concentration (MIC)
Description: as §1, §2

[10] = tested on: Escherichia Coli A 223; experiment: as above; format: cell-based; conditions: 37° C., read-out: minimum inhibiting concentration (MIC)
Description: as §1, §2

[11] = tested on: Escherichia Coli 7881; experiment: as above; format: cell-based; conditions: 37° C., read-out: minimum inhibiting concentration (MIC)
Description: as §1, §2

[12] = tested on: Proteus Vulgaris Co 4; experiment: as above; format: cell-based; conditions: 37° C., read-out: minimum inhibiting concentration (MIC)
Description: as §1, §2

[13] = tested on: Proteus Mirabilis 1816; experiment: as above; format: cell-based; conditions: 37° C., read-out: minimum inhibiting concentration (MIC)
Description: as §1, §2

[14] = tested on: Staphylococcus aureus I H 47; experiment: as above; format: cell-based; conditions: 37° C., read-out: minimum inhibiting concentration (MIC)
Description: as §1, §2

[15] = tested on: Proteus Vulgaris Co 1; experiment: as above; format: cell-based; conditions: 37° C., read-out: minimum inhibiting concentration (MIC)
Description: as §1, §2

[16] = tested on: Escherichia Coli T 55 4376; experiment: as above; format: cell-based; conditions: 37° C., read-out: minimum inhibiting concentration (MIC)
Description: as §1, §2

[17] = tested on: Proteus Mirabilis 3477; experiment: as above; format: cell-based; conditions: 37° C., read-out: minimum inhibiting concentration (MIC)
Description: as §1, §2

[18] = Affinity to atmospheric humidity / hygroscopicity; format: physicochemical; conditions: solid
[19] = Stability test, percent of activity remaining on storage; format: physicochemical; conditions: nonsterile air; for % of activity after storage: time 0, closed flask
Description: Product A was placed in a flask containing nonsterile air and it was closed with a rubber stopper. The flask was stored at the temperatures for the times indicated in the following table and the percent of activity remaining was determined.

In the case of CO/N=C(\C(=O)NC1C(=O)N2C(C(=O)O)=C(COC(C)=O)CSC12)c1csc(N)n1 (stereo not drawn) [Product A, sodium 3-acetoxymethyl-7-[2-(2-amino-4-thiazolyl)-2-methoxyimino-acetamido]-ceph-3-eme-4-carboxylate], the MIC ([1]; IH41, 24 H) is reported as 1 µg/mL, the MIC ([1]; IH41, 48 H) is reported as 2 µg/mL and the MIC ([2]; 24 H) is reported as 0.1 µg/mL. It also gave an MIC ([2]; 48 H) of 0.1 µg/mL, an MIC ([3]; IH38, 24 H) of 1 µg/mL and an MIC ([3]; IH38, 48 H) of 2 µg/mL. The MIC ([4]; 24 H) was 0.02 µg/mL, the MIC ([4]; 48 H) was 0.02 µg/mL and the MIC ([5]; 24 H) was 0.1 µg/mL. For the same compound, the MIC ([5]; 48 H) was 0.1 µg/mL, the MIC ([6]; 24 H) was ≤ 0.02 µg/mL and the MIC ([6]; 48 H) was ≤ 0.02 µg/mL. For the same compound, the MIC ([7]; COLIT554076, 24 H) was 0.05 µg/mL, the MIC ([7]; COLIT554076, 48 H) was 0.05 µg/mL and the MIC ([8]; IH005, 24 H) was 2 µg/mL. It also gave an MIC ([8]; IH005, 48 H) of 3 µg/mL, an MIC ([9]; 24 H) of 0.2 µg/mL and an MIC ([9]; 48 H) of 0.2 µg/mL. The MIC ([10]; COLIA223, 24 H) was 0.1 µg/mL, the MIC ([10]; COLIA223, 48 H) was 0.1 µg/mL and the MIC ([11]; COLI7881, 24 H) was 0.1 µg/mL. The MIC ([11]; COLI7881, 48 H) was 0.1 µg/mL, the MIC ([12]; 24 H) was 0.6 µg/mL and the MIC ([12]; 48 H) was 0.6 µg/mL. The MIC ([13]; 24 H) was 0.05 µg/mL, the MIC ([13]; 48 H) was 0.05 µg/mL and the MIC ([14]; IH47, 24 H) was 2 µg/mL. For the same compound, the MIC ([14]; IH47, 48 H) was 2 µg/mL, the MIC ([15]; 24 H) was 0.2 µg/mL and the MIC ([15]; 48 H) was 0.4 µg/mL. It also gave an MIC ([16]; COLIT554376, 24 H) of 0.1 µg/mL, an MIC ([16]; COLIT554376, 48 H) of 0.1 µg/mL and an MIC ([17]; 24 H) of 0.05 µg/mL. For the same compound, the MIC ([17]; 48 H) was 0.05 µg/mL, the “affinity to atmospheric humidity / hygroscopicity” value ([18]; listed as crystalline D form) was “low affinity to atmospheric humidity” and the remaining at 1080 h ([19]; 50° C., 1.5 months, closed flask, read-out: % of activity after storage) was 92.5%. The remaining at 2160 h ([19]; 50° C., 3 months, closed flask, read-out: % of activity after storage) was 92%, the “% of activity after storage” value ([19]; 50° C.) was 97% and the remaining at 336 h ([19]; 80° C., 2 weeks, closed flask, read-out: % of activity after storage) was 81.5%. For the same compound, the remaining at 160 h ([19]; 80° C., 160 hours, closed flask, read-out: % of activity after storage) was 89.5% and the “% of activity after storage” value ([19]; 80° C.) was 97%.

With CO/N=C(\C(=O)NC1C(=O)N2C(C(=O)O)=C(COC(C)=O)CSC12)c1csc(N)n1 (stereo not drawn) [sodium salt not containing methanol, sodium 3-acetoxymethyl-7-[2-(2-amino-4-thiazolyl)-2-methoxyimino-acetamido]-ceph-3-eme-4-carboxylate] the “affinity to atmospheric humidity / hygroscopicity” value [18] was “hygroscopic”.
